Measurements reported in article PMC10056636, “3-Amino-Substituted Analogues of Fusidic Acid as Membrane-Active Antibacterial Compounds” (Membranes, 2023).
Values after ≈ are worked out from the molar mass of the structure shown. Read-outs that look alike come from different tables or passages of the source.

Experiments:
human red blood cells = assay: Hemolysis assay; assay type: cell-based; conditions: human, 1 h
Description: (§1) Human whole blood was washed three times with 3 volumes of 0.9% NaCl and then resuspended in the same medium to a concentration of 0.5 × 10^8 cells/mL, as determined by manual cell count in a Neubauer hemocytometer. The washed cells were then added to 384-well plates containing the test compounds to a final volume of 50 µL. After shaking on a plate shaker for 10 min, the plates were incubated for 1 h at 37 °C. After incubation, the plates were centrifuged at 1000× g for 10 min to pellet the cells and debris; 25 µL of the supernatant was then transferred to a polystyrene 384-well assay plate.
(§2) Hemolysis was monitored by measuring the supernatant absorbance at […] (OD405). The absorbance was measured using a Tecan M1000 Pro monochromator plate reader. HC10 and HC50 (10% and 50% hemolysis concentrations, respectively) were calculated by curve fitting of inhibition vs. log(concentration) using a sigmoidal dose–response function with variable fitting values for top, bottom, and slope. In addition, the maximal percentage of hemolysis is reported as DMax, indicating any compounds with partial hemolysis. The curve fitting was implemented using Pipeline Pilot’s dose–response component. […] Any value with > indicated sample with no activity (low DMax value) or samples with HC10 values above the maximum tested concentration (higher DMax value).
(§3) In addition, samples were flagged as partially hemolytic if DMax ≥ 50%, even for HC10 > the maximum tested concentration. […]

Hemolysis assay = assay type: cell-based, human; conditions: human, Dmax (maximal percentage of hemolysis)
Description: as §1, §2, §3

[1] = test system: Staphylococcus aureus (ATCC 43300) (MRSA); assay: Antibacterial whole-cell growth inhibition (MIC, CO-ADD); assay type: cell-based; conditions: for MIC: S. aureus (MRSA) ATCC 43300, inhibition ≥80%, two replicates (n = 2); for primary screening: antimicrobial activity: S. aureus (MRSA), primary screen at 32 μg/mL
Description: (§4) Antibacterial screening was carried out by the serial dilution method. All bacteria were cultured in the cation-adjusted Mueller Hinton broth (CAMHB) at 37 °C overnight. A sample of each culture was then diluted 40-fold in fresh broth and incubated at 37 °C for 1.5–3 h. The resultant mid-log phase cultures were diluted (CFU/mL measured by OD600) and then added into each well containing a test compound, giving a cell density of 5 × 10^5 CFU/mL and a total volume of 50 µL. All the plates were covered and incubated at 37 °C for 18 h without shaking.
(§5) Inhibition of bacterial growth was determined by measuring the absorbance at 600 nm (OD600) with a Tecan M1000 Pro monochromator plate reader. […]

[2] = test system: human embryonic kidney cell line HEK293 (ATCC CRL-1573); assay: in vitro; assay type: cell-based; conditions: human, 20 h
Description: (§6) HEK293 cells were counted manually in a Neubauer hemocytometer and then plated in 384-well plates containing the test compounds to give a density of 5000 cells per well in a final volume of 50 µL. DMEM supplemented with 10% FBS was used as the growth medium, and the cells were incubated together with the compounds for 20 h at 37 °C in 5% CO2.
(§7) The cytotoxicity (or cell viability) was measured by fluorescence, ex: 560/10 nm, em: 590/10 nm (F560/590), after addition of 5 µL of 25 µg/mL resazurin (2.3 µg/mL final concentration) and after incubation for further 3 h at 37 °C in 5% CO2. The fluorescence intensity was measured using a Tecan M1000 Pro monochromator plate reader with automatic gain control. The CC50 (50% cytotoxicity concentration) values were calculated by curve fitting of inhibition vs. log(concentration) using a sigmoidal dose–response function, with variable fitting values for bottom, top, and slope. In addition, the maximal percentage of cytotoxicity is reported as DMax, indicating any compounds with partial cytotoxicity. The curve fitting was implemented using Pipeline Pilot’s dose–response component. The results were similar to those obtained by other curve-fitting tools, such as GraphPad’s Prism and IDBS’s XlFit. Any value with > indicated samples with no activity (low DMax value) or samples with CC50 values above the maximum tested concentration (higher DMax value).
(§8) In addition, samples were flagged as partially cytotoxic if DMax ≥ 50%, even for CC50 > the maximum tested concentration.
(§9) Tamoxifen served as a positive cytotoxicity standard. Melittin was used as a positive hemolytic standard.

in vitro = assay type: cell-based, human; conditions: human, CC50
Description: as §6, §7, §8, §9

[3] = test system: Cryptococcus neoformans (ATCC 208821); assay: Antifungal growth inhibition (MIC, CO-ADD); conditions: inhibition ≥70%, two replicates per cell
Description: Antimicrobial, cytotoxicity, and hemolytic activity screening of the synthesized derivatives was carried out in the CO-ADD (The Community for Antimicrobial Drug Discovery) (http://www.co-add.org, accessed on 24 November 2020) and included analysis for antibacterial properties, cytotoxicity, and hemolytic activity.
The hit confirmation test included five bacteria, Escherichia coli (ATCC 25922), Klebsiella pneumoniae (ATCC 700603), Acinetobacter baumannii (ATCC 19606), Pseudomonas aeruginosa (ATCC 27853), and Staphylococcus aureus (ATCC 43300), and two fungi, Candida albicans (ATCC 90028) and Cryptococcus neoformans (ATCC 208821). […] The compounds were also screened for hemolysis of human red blood cells (human whole blood, strain ARCBS 5400 00150).
Samples were prepared in DMSO and water to a final testing concentration of 32 µg/mL or 20 µM (unless otherwise indicated in the data sheet) and serially diluted twofold up to 8 times. Each sample concentration was prepared in 384-well plates: non-binding surface plate (NBS; Corning 3640) for each bacterial/fungal strain, tissue-culture treated (TC-treated; Corning 3712/3764) black for mammalian cell types and polypropylene 384-well plates (PP; Corning 3657) for hemolysis assays. The final DMSO concentration was maintained to a maximum of 0.5%. All sample preparation procedures were performed using liquid-handling robots. All screening was performed as two replica (n = 2), with both replicas on different assay plates, but from single plating and performed in a single screening experiment (microbial incubation). In addition, two values are used as quality controls for individual plates: Z′-Factor [1 − (3* (sd(NegCtrl) + sd(PosCtrl))/(average(PosCtrl)-average(NegCtrl)))] and standard antibiotic controls at different concentrations (>MIC and <MIC).
Fungi strains were cultured for 3 days on yeast extract-peptone dextrose (YPD) agar at 30 °C. A yeast suspension of 1 × 10^6 to 5 × 10^6 CFU/mL (as determined by OD530) was prepared from five colonies. The suspension was subsequently diluted and added to each well containing a test compound, giving a final cell density of fungi suspension of 2.5 × 10^3 CFU/mL and a total volume of 50 µL. All plates were covered and incubated at 35 °C for 36 h without shaking.
The absorbance was measured using a Biotek Multiflo Synergy HTX plate reader. In both cases, the percentage of growth inhibition was calculated for each well, using the negative control (media only) and positive control (fungi without inhibitors) in the same plate. […] In addition, the maximal percentage of growth inhibition is reported as DMax, indicating any compounds with marginal activity.
Fluconazole was used as a positive fungal inhibitor standard for C. albicans and C. neoformans. […] The quality control (QC) of the assays was performed using Z′-factors calculated from the negative (media only) and positive controls (bacterial, fungal, or cell culture without inhibitor) and the standards.

[4] = test system: Candida albicans (ATCC 90028); assay: Antifungal growth inhibition (MIC, CO-ADD); assay type: cell-based; conditions: C. albicans, inhibition ≥80%, two replicates per cell
[5] = test system: Acinetobacter baumannii (ATCC 19606); assay: Antibacterial whole-cell growth inhibition (MIC, CO-ADD); assay type: cell-based; conditions: A. baumannii, two replicates per cell
Description: as §4, §5

[6] = test system: Escherichia coli (ATCC 25922); assay: as above; assay type: cell-based; conditions: E. coli, two replicates per cell
Description: as §4, §5

[7] = test system: Pseudomonas aeruginosa (ATCC 27853); assay: as above; assay type: cell-based; conditions: P. aeruginosa, two replicates per cell
Description: as §4, §5

[8] = Ion permeability, pore formation and rupture of planar lipid bilayers
Description: (§10) Synthetic 1,2-diphytanoyl-sn-glycero-3-phosphocholine (DPhPC) and 1,2-diphytanoyl-sn-glycero-3-phospho-(1′-rac-glycerol) (DPhPG) were purchased from Avanti® Polar Lipids (Avanti Polar Lipids, Inc., Alabaster, AL, USA). A KCl solution (0.1 M) was buffered with 5 mM HEPES, pH 7.4. Bilayer lipid membranes were prepared from DPhPC or DPhPG using a monolayer-opposition technique on a 50 µm-diameter aperture in a 10 µm-thick Teflon film separating the cis- and trans-compartments of the Teflon chamber. Experiments were performed in chambers containing 0.1 M KCl, 5 mM Hepes-KOH, pH 7.4.
(§11) The test compounds (4, 20, 22) were added to the cis-chamber as 10 mg/mL solutions in ethanol (to mimic the physiologically relevant conditions) up to the final concentrations and the effects of the compounds on the ion permeability of the model lipid membranes were studied. Ag/AgCl electrodes with 1.5% agarose/2 M KCl bridges were used to apply the transmembrane voltage (V) and measure the transmembrane current (I). ‘Positive voltage’ refers to the case in which the cis-side compartment is positive with respect to the trans-side. All experiments were performed at room temperature.
(§12) The current was measured using an Axopatch 200B amplifier (Molecular Devices, LLC, Orlean, CA, USA) in voltage clamp mode. Data were digitized using a Digidata 1440A and analyzed using pClamp 10.0 (Molecular Devices, LLC, Orlean, CA, USA) and Origin 8.0 (OriginLab Corporation, Northampton, MA, USA). The data were acquired at a sampling frequency of 5 kHz using low-pass filtering at 200 Hz.
(§13) The threshold concentrations (Cbr) of the derivatives required to rupture the bilayers composed of DPhPC or DPhPG at a transmembrane voltage of 100 mV were determined. Cbr-values were averaged from 3 to 4 bilayers and presented as mean ± standard error (p ≤ 0.05).
Pore-forming ability of compound 22 was studied by applying transmembrane voltages in a range of 50–200 mV with 50 mV step and by increasing the derivative concentration in the bilayer bathing solution from 10 to 150 µg/mL.

[9] = Ion permeability and rupture of planar lipid bilayers
Description: as §10, §11, §12, §13

[10] = Measurement of the membrane boundary potential (K+-nonactin conductance); conditions: DPhPG, 0.1 M KCl, pH 7.4, 50 mV
Description: Measurement of the membrane boundary potential. Virtually solvent-free planar lipid bilayers were made of DPhPC or DPhPG as described above. After the membrane was completely formed and stabilized and its stability was assessed by applying voltages in a range from −200 to 200 mV with a 50 mV step for 5–10 min, stock solutions of nonactin A (7 μg/mL in ethanol) were added to the bathing solution (0.1 M KCl, 5 mM HEPES, pH 7.4) in both chamber compartments to obtain a final concentration ranging from 0.1 to 1 μM.
Test derivatives (4, 20, 22) as 10 mg/mL solutions in ethanol were added to both compartments in a concentration range from 5 µg/mL to Cbr in increments of 25 µg/mL.
The conductance of the bilayers was determined by measuring the membrane conductance (G) at a constant transmembrane voltage of 50 mV. In the subsequent calculations, the membrane conductance was assumed to be related to the membrane boundary potential (φb), the potential drop between the aqueous solution and the membrane hydrophobic core, by the Boltzmann distribution (1) Gm/Gm0=exp(eΔφb/kT) where Gm and Gm^0 are the steady-state membrane conductances induced by K^+-nonactin in the presence and absence of test compounds, respectively; e, k, and T have their usual meanings.
The changes in the membrane boundary potential for the defined experimental conditions were averaged from 4 bilayers and presented as mean ± standard deviation (p ≤ 0.05).

[11] = Staphylococcus aureus, read-out: MIC

| Compound | melting point [°C] | Dmax (maximal percentage of hemolysis) (human red blood cells) [%] | HC50 (human red blood cells) | hemolysis at 1 h (Hemolysis assay) [%] | MIC [1] | primary screening: antimicrobial activity [1] | MIC [1, 11] [µg/mL] | CC50 [2] | CC50 at 20 h (in vitro) [µg/mL] | further results |
| --- | --- | --- | --- | --- | --- | --- | --- | --- | --- | --- |
| CC(=O)O[C@H]1C[C@@]2(C)[C@H](C[C@@H](O)[C@@H]3[C@@]4(C)CC[C@H](NC(=O)c5cnccn5)[C@@H](C)C4CC[C@@]32C)/C1=C(\CCC=C(C)C)C(=O)O (stereo partly drawn) [Compound 3, (2Z)-2-{(3β,4α,8α,11α,14β,16β)-16-(acetyloxy)-11-hydroxy-4,8,10,14-tetramethyl-3-[(pyrazin-2-ylcarbonyl)amino]gonan-17-ylidene}-6-methylhept-5-enoic acid] | 162 to 164 | 1.4 | >32 >32 µg/mL | 2.2 | ≤0.25 ≤0.25 µg/mL | showed antimicrobial activity | 0.25 (≈ 0.402 µM) | >32 >32 µg/mL | > 32 |  |
| CC(=O)O[C@H]1C[C@@]2(C)[C@@H](C[C@@H](O)[C@H]3[C@@]4(C)CC[C@@H](O)[C@@H](C)[C@@H]4CC[C@@]32C)/C1=C(\CCC=C(C)C)C(=O)O [Fusidic acid] |  | 9.7 | >32 >32 µg/mL | 10 | ≤0.25 ≤0.25 µg/mL |  | ≤ 0.25 | >32 >32 µg/mL | > 32 | MIC ([3]; C. neoformans): >32 >32 µg/mL; MIC ([3]; Cryptococcus neoformans, ATCC208821, C. neoformans): > 32 µg/mL; MIC [4]: >32 >32 µg/mL; MIC ([4]; Candida albicans, ATCC90028, read-out: MIC): > 32 µg/mL; MIC [5]: >32 >32 µg/mL; MIC ([5]; Acinetobacter baumannii, ATCC19606, read-out: MIC): > 32 µg/mL; MIC [6]: >32 >32 µg/mL; MIC ([6]; Escherichia coli, ATCC25922, read-out: MIC): > 32 µg/mL; MIC [7]: >32 >32 µg/mL; MIC ([7]; Pseudomonas aeruginosa, ATCC27853, read-out: MIC): > 32 µg/mL |
| COC(=O)/C(CCC=C(C)C)=C1\[C@@H](OC(C)=O)C[C@@]2(C)[C@@H]1C[C@@H](O)[C@@H]1[C@@]3(C)CC[C@H](NC(=O)c4cnccn4)[C@@H](C)C3CC[C@@]12C (stereo partly drawn) [Compound 4, Methyl (2Z)-2-{(3β,4α,8α,11α,14β,16β)-16-(acetyloxy)-11-hydroxy-4,8,10,14-tetramethyl-3-[(pyrazin-2-ylcarbonyl)amino]gonan-17-ylidene}-6-methylhept-5-enoate] | 151 to 153 |  | >32 >32 µg/mL | 3.9 | ≤0.25 ≤0.25 µg/mL | showed antimicrobial activity | 0.25 (≈ 0.393 µM) | > 32 µg/mL | 24 (≈ 37.7 µM) | concentration up to which ionic permeability of lipid bilayers is not affected ([8]; DPhPG): up to 170 μg/mL; formation of ion-permeable pores ([8]; DPhPG bilayers): not able to form transient ion-permeable pores; Cbr (threshold concentration required to rupture the bilayer) ([8]; DPhPG, 0.1 M KCl, pH 7.4, 100 mV): 163 ± 11 µg/mL; concentration up to which addition did not increase the ion permeability of the lipid bilayers ([9]; DPhPC uncharged membranes): ≤ 225 µg/mL; Cbr (threshold concentration required to rupture the bilayer) ([9]; DPhPC, 0.1 M KCl, pH 7.4, 100 mV): 225 ± 15 µg/mL; −Δφb(max) (maximum decrease in the membrane boundary potential) [10]: 21 ± 5 mV |
